Source: patent US20260258064A1 (SIRONAX LTD., priority 2023, published 2026)

biological target: T1, SARM1 (50-724) (Homo sapiens, UniProt Q6SZW1); experiment: SARM1 (50-724) enzymatic assay (LC-MS/MS); assay type: biochemical; details: Purified SARM1 (50-724) 2 nM, NMN as activator, NAD+ as substrate, 1 h at room temperature, read-out: IC50 (SARM1 inhibitory activity)
T1 construct: Purified SARM1 (50-724) with a final concentration of 2 nM was pre-incubated with a test compound
T1 sequence (Q6SZW1 50-724): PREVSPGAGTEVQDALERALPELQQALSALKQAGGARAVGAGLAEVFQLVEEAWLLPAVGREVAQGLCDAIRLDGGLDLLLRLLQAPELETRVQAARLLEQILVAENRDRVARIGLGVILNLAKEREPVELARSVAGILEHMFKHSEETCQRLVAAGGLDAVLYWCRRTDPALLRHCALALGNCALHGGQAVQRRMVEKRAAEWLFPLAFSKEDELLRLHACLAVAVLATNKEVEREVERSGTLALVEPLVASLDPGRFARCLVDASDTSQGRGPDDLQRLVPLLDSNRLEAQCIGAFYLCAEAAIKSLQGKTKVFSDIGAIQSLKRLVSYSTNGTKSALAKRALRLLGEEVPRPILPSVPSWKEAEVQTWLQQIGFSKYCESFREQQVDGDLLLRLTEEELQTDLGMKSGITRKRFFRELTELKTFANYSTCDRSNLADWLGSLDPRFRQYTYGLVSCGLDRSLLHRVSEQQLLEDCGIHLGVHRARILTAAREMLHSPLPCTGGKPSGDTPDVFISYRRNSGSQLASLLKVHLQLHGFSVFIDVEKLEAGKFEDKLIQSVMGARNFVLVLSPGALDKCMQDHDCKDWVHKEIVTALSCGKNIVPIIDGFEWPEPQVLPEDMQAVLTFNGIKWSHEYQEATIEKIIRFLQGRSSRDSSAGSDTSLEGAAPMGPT
Outline: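 Reaction buffer was Dulbecco's PBS. Compound and 2 nM human SARM1 (50-724) were pre-incubated 15 min at room temperature, then […] NAD^+ and 200 µM NMN activator were added for 1 h at room temperature. Acetonitrile (70%) stop, LC-MS/MS read-out, IC50 values.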

| IC50 [nM] | SMILES |
| --- | --- |
| ≤ 100 | CC1(O)CC(Cc2nnc(-c3nc4cc(C(F)(F)F)ccc4[nH]3)n2-c2cccc(F)c2Cl)C1 (centres unmarked) [Compound 421, 3-((4-(2-chloro-3-fluorophenyl)-5-(5-(trifluoromethyl)-1H-benzo[d]imidazol-2-yl)-4H-1,2,4-triazol-3-yl)methyl)-1-methylcyclobutan-1-ol] |
| ≤ 100 | N#Cc1c(-c2cnccc2-c2cccc(Cl)c2Cl)[nH]c2ccc(C(F)(F)F)cc12 [Example 47, 2-(4-(2,3-dichlorophenyl)pyridin-3-yl)-5-(trifluoromethyl)-1H-indole-3-carbonitrile] |
| 500 to 1000 | FC(F)(F)c1ccc2[nH]c(-c3cccn3-c3nccnc3C(F)(F)F)nc2c1 [Compound 313] |
| ≤ 100 | O=c1cc(-n2cnnc2-c2cc3cc(C(F)(F)F)cc(F)c3[nH]2)c(OC(F)(F)F)cn1CCO [Compound 410, 4-(3-(7-fluoro-5-(trifluoromethyl)-1H-indol-2-yl)-4H-1,2,4-triazol-4-yl)-1-(2-hydroxyethyl)-5-(trifluoromethoxy)pyridin-2(1H)-one] |
| > 1000 | [O-][S+]1CCN(c2ccccc2)C(c2nc3cc(C(F)(F)F)ccc3[nH]2)C1 (centres unmarked) [Compound 325, 4-phenyl-3-(5-(trifluoromethyl)-1H-benzo[d]imidazole-2-yl)thiomorpholine 1-oxide] |
| ≤ 100 | FC(F)(F)Oc1cnccc1-n1cnnc1-c1nc2cc(C34CC(C3)C4)ccc2[nH]1 [Compound 223, 5-(bicyclo[1.1.1]pentan-1-yl)-2-(4-(3-(trifluoromethoxy)pyridin-4-yl)-4H-1,2,4-triazol-3-yl)-1H-benzo[d]imidazole] |
| 100 to 500 | FC(F)(F)c1ccc2[nH]c(-c3nncn3-c3cnncc3C3CC3)nc2c1 [Compound 220, 2-(4-(5-cyclopropylpyridazin-4-yl)-4H-1,2,4-triazol-3-yl)-5-(trifluoromethyl)-1H-benzo[d]imidazole] |
| ≤ 100 | Fc1ccc(-n2cnnc2-c2nc3cc(C(F)(F)F)ccc3[nH]2)c(OC(F)(F)F)c1 [Compound 189, 2-(4-(4-fluoro-2-(trifluoromethoxy)phenyl)-4H-1,2,4-triazol-3-yl)-5-(trifluoromethyl)-1H-benzo[d]imidazole] |
| ≤ 100 | [2H]C([2H])([2H])N(c1cc(F)c2[nH]c(-c3nncn3-c3cnccc3C(F)(F)F)nc2c1)C([2H])([2H])[2H] [Compound 403, 7-fluoro-N,N-bis(methyl-d3)-2-(4-(4-(trifluoromethyl)pyridin-3-yl)-4H-1,2,4-triazol-3-yl)-1H-benzo[d]imidazol-5-amine] |
| ≤ 100 | Clc1cccc(-n2cnnc2-c2nc3cc(Br)ccc3[nH]2)c1Cl [Compound 49, 5-bromo-2-(4-(2,3-dichlorophenyl)-4H-1,2,4-triazol-3-yl)-1H-benzo[d]imidazole] |
| 100 to 500 | Cc1ccc2[nH]c(-c3cc(C#N)cn3C3CCCC3)nc2c1 [Compound 18, 1-cyclopentyl-5-(5-methyl-1H-benzo[d]imidazol-2-yl)-1H-pyrrole-3-carbonitrile] |
| ≤ 100 | FC(F)(F)c1ccc2[nH]c(-c3nncn3-c3cccc(Cl)c3Br)nc2c1 [Example 119] |
| ≤ 100 | FC(F)(F)Oc1ccccc1-n1cnnc1-c1nc2cc(C(F)(F)F)ccc2[nH]1 [Compound 160] |
| > 1000 | FC(F)(F)c1ccc2[nH]c(-c3nncn3-c3ccncc3OC3CC3)nc2c1 [Compound 228] |
| 100 to 500 | Fc1cc(N2CCC2)cc2nc(-c3nncn3-c3cnccc3C(F)(F)F)[nH]c12 [Compound 301, 5-(azetidin-1-yl)-7-fluoro-2-(4-(4-(trifluoromethyl)pyridin-3-yl)-4H-1,2,4-triazol-3-yl)-1H-benzo[d]imidazole] |
| 100 to 500 | CP(C)(=O)c1cc(F)c2[nH]c(-c3nncn3-c3cnccc3C(F)(F)F)nc2c1 [Compound 392, 5-dimethylphosphoryl-7-fluoro-2-[4-[4-(trifluoromethyl)-3-pyridyl]-1,2,4-triazol-3-yl]-1H-benzimidazole] |
| > 1000 | O=C1OCC(c2nc3cc(C(F)(F)F)ccc3[nH]2)=C1c1cccc(Cl)c1Cl [Compound 25, 3-(2,3-Dichlorophenyl)-4-(5-(trifluoromethyl)-1H-benzo[d]imidazol-2-yl)furan-2(5H)-one] |
| ≤ 100 | CS(=O)(=O)Cc1nnc(-c2nc3c(F)c(C(F)(F)F)ccc3[nH]2)n1-c1cccc(F)c1Cl (racemic) [Compound 195, 2-(4-(2-chloro-3-fluorophenyl)-5-((methylsulfonyl)methyl)-4H-1,2,4-triazol-3-yl)-4-fluoro-5-(trifluoromethyl)-1H-benzo[d]imidazole] |

| IC50 [nM] | SMILES |
| --- | --- |
| ≤ 100 | CCOC(=O)C1(c2ccc3[nH]c(-c4nncn4-c4cccc(Cl)c4Cl)nc3c2)CCC1 [Example 129] |
| ≤ 100 | OC1CC(OCc2nnc(-c3nc4cc(C(F)(F)F)ccc4[nH]3)n2-c2cccc(Cl)c2Cl)C1 (centres unmarked) [Example 127] |
| ≤ 100 | Fc1c(CC(F)F)cc(F)c2[nH]c(-c3nncn3-c3cnccc3C(F)(F)F)nc12 [Compound 329, 5-(2,2-difluoroethyl)-4,7-difluoro-2-[4-[4-(trifluoromethyl)-3-pyridyl]-1,2,4-triazol-3-yl]-1H-benzimidazole] |
| 100 to 500 | FC(F)(F)c1ccc2[nH]c(C3CSCC3c3ccccc3Cl)nc2c1 (centres unmarked) [Compound 340, 2-(4-(2-chlorophenyl)tetrahydrothiophen-3-yl)-5-(trifluoromethyl)-1H-benzo[d]imidazole] |
| 100 to 500 | Fc1cccc(-n2c(Cn3cccn3)nnc2-c2nc3cc(C(F)(F)F)ccc3[nH]2)c1Cl [Compound 381, 2-(5-((1H-pyrazol-1-yl)methyl)-4-(2-chloro-3-fluorophenyl)-4H-1,2,4-triazol-3-yl)-5-(trifluoromethyl)-1H-benzo[d]imidazole] |
| ≤ 100 | FC(F)(F)c1ccc2[nH]c(-c3nncn3-c3cnccc3C(F)(F)F)c(-c3ccco3)c2c1 [Compound 376, 3-(2-furyl)-5-(trifluoromethyl)-2-[4-[4-(trifluoromethyl)-3-pyridyl]-1,2,4-triazol-3-yl]-1H-indole] |
| ≤ 100 | OCCOc1ccc(OC(F)(F)F)c(-n2cnnc2-c2nc3cc(C(F)(F)F)ccc3[nH]2)c1 [Compound 230, 2-(4-(trifluoromethoxy)-3-(3-(5-(trifluoromethyl)-1H-benzo[d]imidazol-2-yl)-4H-1,2,4-triazol-4-yl)phenoxy)ethan-1-ol] |
| 500 to 1000 | FC(F)(F)c1ccc2[nH]c(-c3nnccc3N3CCOCC3)nc2c1 [Compound 457, 4-(3-(5-(trifluoromethyl)-1H-benzo[d]imidazol-2-yl)pyridazin-4-yl)morpholine] |
| > 1000 | O=C1CCCN1c1c(-c2nncn2-c2cnccc2C(F)(F)F)[nH]c2ccc(C(F)(F)F)cc12 [Compound 367, 1-(5-(trifluoromethyl)-2-(4-(4-(trifluoromethyl)pyridin-3-yl)-4H-1,2,4-triazol-3-yl)-1H-indol-3-yl)pyrrolidin-2-one] |
| ≤ 100 | Cn1ncc(Cl)c1-c1ccnnc1-c1nc2cc(C(F)(F)F)ccc2[nH]1 [Compound 399, 2-(4-(4-chloro-1-methyl-1H-pyrazol-5-yl)pyridazin-3-yl)-5-(trifluoromethyl)-1H-benzo[d]imidazole] |
| > 1000 | Cc1ccc2[nH]c(-c3ccc(C(N)=O)n3C3CCCC3)nc2c1 [Compound 24, 1-cyclopentyl-5-(5-methyl-1H-1,3-benzodiazol-2-yl)pyrrole-2-carboxamide] |
| > 1000 | FC(F)(F)c1cc2cc(-c3nncn3-c3cnccc3C(F)(F)F)[nH]c2cn1 [Compound 299, 5-(trifluoromethyl)-2-(4-(4-(trifluoromethyl)pyridin-3-yl)-4H-1,2,4-triazol-3-yl)-1H-pyrrolo[2,3-c]pyridine] |
| ≤ 100 | COc1ccc(Cl)c(-n2cnnc2-c2nc3cc(C(F)(F)F)ccc3[nH]2)n1 [Example 114] |
| ≤ 100 | FC(F)(F)c1ccc2[nH]c(-n3nncc3-c3cccc(Cl)c3Cl)nc2c1 [Compound 315, 2-(5-(2,3-dichlorophenyl)-1H-1,2,3-triazol-1-yl)-5-(trifluoromethyl)-1H-benzo[d]imidazole] |
| ≤ 100 | OCCOc1cc(-n2cnnc2-c2nc3cc(C(F)(F)F)ccc3[nH]2)c(OC(F)(F)F)cc1F [Compound 263, 2-(2-fluoro-4-(trifluoromethoxy)-5-(3-(5-(trifluoromethyl)-1H-benzo[d]imidazol-2-yl)-4H-1,2,4-triazol-4-yl)phenoxy)ethan-1-ol] |
| > 1000 | Cc1ccc2[nH]c(-c3nncn3C3CCCC3)c(CO)c2c1 [Compound 11, [2-(4-cyclopentyl-1,2,4-triazol-3-yl)-5-methyl-1H-indol-3-yl]methanol] |
| ≤ 100 | Cn1ncc(C(F)(F)F)c1-n1cnnc1-c1nc2cc(C(F)(F)F)ccc2[nH]1 [Compound 257, 2-(4-(1-methyl-4-(trifluoromethyl)-1H-pyrazol-5-yl)-4H-1,2,4-triazol-3-yl)-5-(trifluoromethyl)-1H-benzo[d]imidazole] |
